Measured values published in ChEMBL document CHEMBL3526061, “Glucuronidation of edaravone by human liver and kidney microsomes: biphasic kinetics and identification of UGT1A9 as the major UDP-glucuronosyltransferase isoform” (Drug Metab Dispos, 2012).

Legend:
Assay type in all cases: ADME
[1] = target: T1, UDP-glucuronosyltransferase 1A4 (Homo sapiens, UniProt P22310); experiment: Activity of human recombinant UGT1A4 expressed in insect cells assessed as enzyme mediated glucuronidation at 500 uM by LC-MS/MS method
T1 sequence (P22310 whole entry): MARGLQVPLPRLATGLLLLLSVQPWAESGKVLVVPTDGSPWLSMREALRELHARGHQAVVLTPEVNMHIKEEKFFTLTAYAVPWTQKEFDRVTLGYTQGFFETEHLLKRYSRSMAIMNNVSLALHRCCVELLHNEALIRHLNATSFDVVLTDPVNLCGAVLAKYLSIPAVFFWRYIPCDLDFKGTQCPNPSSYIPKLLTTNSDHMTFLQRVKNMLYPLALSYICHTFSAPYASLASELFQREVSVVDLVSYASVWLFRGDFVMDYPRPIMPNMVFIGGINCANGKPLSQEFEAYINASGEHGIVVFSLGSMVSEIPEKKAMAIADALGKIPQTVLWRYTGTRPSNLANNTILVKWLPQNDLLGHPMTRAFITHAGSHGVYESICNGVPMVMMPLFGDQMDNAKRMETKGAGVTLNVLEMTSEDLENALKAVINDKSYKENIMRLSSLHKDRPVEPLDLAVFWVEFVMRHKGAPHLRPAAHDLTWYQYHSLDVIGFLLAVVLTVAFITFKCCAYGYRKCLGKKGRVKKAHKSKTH

[2] = target: T2, UDP-glucuronosyltransferase 1A1 (Homo sapiens, UniProt P22309); experiment: Activity of human recombinant UGT1A1 expressed in insect cells assessed as enzyme mediated glucuronidation at 500 uM by LC-MS/MS method
T2 sequence (P22309 whole entry): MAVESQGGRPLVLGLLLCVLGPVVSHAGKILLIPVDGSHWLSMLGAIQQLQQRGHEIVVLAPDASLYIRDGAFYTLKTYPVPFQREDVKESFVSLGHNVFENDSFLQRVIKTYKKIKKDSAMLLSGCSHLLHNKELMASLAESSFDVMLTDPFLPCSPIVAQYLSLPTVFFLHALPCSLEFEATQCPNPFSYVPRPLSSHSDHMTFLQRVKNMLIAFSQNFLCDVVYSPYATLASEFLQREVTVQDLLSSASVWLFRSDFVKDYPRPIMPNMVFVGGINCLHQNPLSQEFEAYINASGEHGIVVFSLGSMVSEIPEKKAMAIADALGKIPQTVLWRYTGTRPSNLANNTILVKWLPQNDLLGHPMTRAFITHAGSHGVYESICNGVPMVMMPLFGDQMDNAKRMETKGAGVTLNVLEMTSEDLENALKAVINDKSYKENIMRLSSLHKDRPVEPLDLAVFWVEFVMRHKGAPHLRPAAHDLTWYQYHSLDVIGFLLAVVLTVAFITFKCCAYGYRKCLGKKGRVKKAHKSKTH

[3] = Drug metabolism in human kidney microsomes assessed as drug glucuronidation per mg tissue in absence of BSA by LC-MS/MS method
[4] = target: T3, UDP-glucuronosyltransferase 2B15 (Homo sapiens, UniProt P54855); experiment: Activity of human recombinant UGT2B15 expressed in insect cells assessed as enzyme mediated glucuronidation at 500 uM by LC-MS/MS method
T3 sequence (P54855 whole entry): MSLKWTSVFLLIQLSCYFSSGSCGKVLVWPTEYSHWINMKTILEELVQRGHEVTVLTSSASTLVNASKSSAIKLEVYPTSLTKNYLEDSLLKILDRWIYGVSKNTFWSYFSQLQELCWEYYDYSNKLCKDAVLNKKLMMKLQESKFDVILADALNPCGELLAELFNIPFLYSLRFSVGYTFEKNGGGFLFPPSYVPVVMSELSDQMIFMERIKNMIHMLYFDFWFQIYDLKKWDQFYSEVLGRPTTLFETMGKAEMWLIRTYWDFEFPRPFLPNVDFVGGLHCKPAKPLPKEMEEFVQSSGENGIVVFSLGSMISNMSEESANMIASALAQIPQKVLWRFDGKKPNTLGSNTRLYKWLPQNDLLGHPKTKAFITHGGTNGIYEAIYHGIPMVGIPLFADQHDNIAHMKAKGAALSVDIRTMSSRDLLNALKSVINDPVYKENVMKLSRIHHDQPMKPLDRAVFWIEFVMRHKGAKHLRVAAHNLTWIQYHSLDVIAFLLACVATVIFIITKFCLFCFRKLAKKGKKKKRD

[5] = target: T4, UDP-glucuronosyltransferase 1A10 (Homo sapiens, UniProt Q9HAW8); experiment: Activity of human recombinant UGT1A10 expressed in insect cells assessed as enzyme mediated glucuronidation at 500 uM by LC-MS/MS method
T4 sequence (Q9HAW8 whole entry): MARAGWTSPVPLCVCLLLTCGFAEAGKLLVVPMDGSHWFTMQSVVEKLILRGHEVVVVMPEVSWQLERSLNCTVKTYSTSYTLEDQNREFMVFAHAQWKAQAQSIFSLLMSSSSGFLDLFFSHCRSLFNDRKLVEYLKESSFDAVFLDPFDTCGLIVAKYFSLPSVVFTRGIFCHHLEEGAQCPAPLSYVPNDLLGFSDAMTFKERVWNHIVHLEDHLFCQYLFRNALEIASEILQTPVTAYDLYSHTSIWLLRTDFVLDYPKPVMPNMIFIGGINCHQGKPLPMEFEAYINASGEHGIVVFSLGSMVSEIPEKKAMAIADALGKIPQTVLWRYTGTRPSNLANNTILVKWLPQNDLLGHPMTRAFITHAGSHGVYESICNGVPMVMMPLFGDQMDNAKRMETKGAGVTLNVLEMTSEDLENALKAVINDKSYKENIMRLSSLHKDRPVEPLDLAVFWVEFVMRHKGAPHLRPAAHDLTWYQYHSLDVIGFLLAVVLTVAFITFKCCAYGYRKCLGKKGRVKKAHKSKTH

[6] = target: T5, UDP-glucuronosyltransferase 2B17 (Homo sapiens, UniProt O75795); experiment: Activity of human recombinant UGT2B17 expressed in insect cells assessed as enzyme mediated glucuronidation at 500 uM by LC-MS/MS method
T5 sequence (O75795 whole entry): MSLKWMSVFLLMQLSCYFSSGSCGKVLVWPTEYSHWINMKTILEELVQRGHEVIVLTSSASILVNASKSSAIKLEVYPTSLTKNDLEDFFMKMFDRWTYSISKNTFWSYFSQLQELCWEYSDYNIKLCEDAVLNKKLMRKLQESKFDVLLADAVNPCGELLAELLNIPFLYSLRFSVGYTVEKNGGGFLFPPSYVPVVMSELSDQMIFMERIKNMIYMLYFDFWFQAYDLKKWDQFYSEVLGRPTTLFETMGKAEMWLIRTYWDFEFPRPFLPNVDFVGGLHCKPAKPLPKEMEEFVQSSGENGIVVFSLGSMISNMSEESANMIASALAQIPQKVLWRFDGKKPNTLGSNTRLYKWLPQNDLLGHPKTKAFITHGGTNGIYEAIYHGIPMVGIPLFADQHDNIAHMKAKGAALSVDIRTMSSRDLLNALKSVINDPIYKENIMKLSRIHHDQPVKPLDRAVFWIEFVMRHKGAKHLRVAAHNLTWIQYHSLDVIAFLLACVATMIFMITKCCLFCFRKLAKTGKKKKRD

## CC1=NN(c2ccccc2)C(=O)C1 [EDARAVONE]
[1]
  Drug metabolism: metabolite_not_detected
[2]
  Drug metabolism: metabolite_detected
[3]
  VmaxH: 336.5 pmol/min/g
  VmaxL: 2396 pmol/min/g
[4]
  Drug metabolism: metabolite_detected
[5]
  Drug metabolism: metabolite_detected
[6]
  Drug metabolism: metabolite_detected
